Where two headings read alike, the source gives them in different places.
Columns and labels:
[1] = design: species or system human; details: in vivo
Source text: COAST was a 6-month, double-blind, block-randomized placebo-controlled study involving 81 healthy participants between 18 and 65 years old. Participant recruitment and assessment commenced on December 2017 and ended on December 2018. Recruitment was achieved through local media and advertisement at the Waterford Institute of Technology, local fitness centers, and with employees of an industry based in Waterford, Ireland. […] Every participant enrolled in the study provided written informed consent prior to commencement. The study protocol was approved May 2017 by the Research Ethics Committees of the Waterford Institute of Technology (Waterford, Ireland) and the HSE, South Eastern Area (University Hospital Waterford, Waterford, Ireland). Industrial Orgánica, S.A. de C.V., the manufacturer of the nutritional supplements, had no role in the design of the study, the collection and analysis of the data, or the preparation of manuscripts. All vouch for the accuracy of the data and the fidelity of the study to the protocol. COAST was a five-arm intervention study, where participants were randomly allocated, with equal probability and separately for men and women, to one of four active intervention groups or to a placebo group. Label claims of the nutritional content in the intervention supplements were as follows: Group 1, L (10 mg)+MZ (10 mg)+Z (2 mg) provided in one capsule; Group 2, L (10 mg)+MZ (10 mg)+Z (2 mg) provided in two capsules; […] Therefore, it was decided to present the dosages of the formulations as stated by label claim. […] Serum carotenoid concentrations were analyzed as the total concentrations (μmol/L) for each of the carotenoids in serum. […] Outcome variables were recorded at baseline and at 6 months. […] Calibration lines used, as well as lower and upper limits of quantification (LLOQ and ULOQ respectively), are as previously performed. Serum carotenoid analysis was completed in sixteen independent batches, with a maximum intra-day precision of 7.28%, measured as RSD, and an inter-day precision of 3.16% (RSD). […]

[2] = cited from earlier work
[3] = hens; cited from earlier work

| serum response compared to free carotenoid as crystals [1] | SMILES | serum response compared to group supplemented with free L ([2]; previous clinical trial) | MPOD improvements compared to free L supplementation ([2]; previous report) | deposition of carotenoid in egg yolk compared to free form [3] | increase of serum L ([2]; AREDS 2 study) [%] | increase of serum L ([2]; CREST AMD study) [%] |
| --- | --- | --- | --- | --- | --- | --- |
| remained similar | CC(=O)O[C@@H]1CC(C)=C(/C=C/C(C)=C/C=C/C(C)=C/C=C/C=C(C)/C=C/C=C(C)/C=C/[C@H]2C(C)=C[C@H](OC(C)=O)CC2(C)C)C(C)(C)C1 [Ld, (3R,3′R,6R)-lutein diacetate] | slightly higher and not statistically different | superior and significant response | similar |  |  |
| significantly greater | CC(=O)OC1CC(C)=C(C=CC(C)=CC=CC(C)=CC=CC=C(C)C=CC=C(C)C=CC2=C(C)CC(OC(C)=O)CC2(C)C)C(C)(C)C1 (stereo not drawn) [MZd, meso-zeaxanthin diacetate] |  |  | greater capability |  |  |
|  | CC1=C[C@H](O)CC(C)(C)[C@H]1/C=C/C(C)=C/C=C/C(C)=C/C=C/C=C(C)/C=C/C=C(C)/C=C/C1=C(C)C[C@@H](O)CC1(C)C [L, (3R,3′R,6R)-lutein, reference compound] |  |  |  | 200 | 304 |
| significantly greater | CC(=O)O[C@@H]1CC(C)=C(/C=C/C(C)=C/C=C/C(C)=C/C=C/C=C(C)/C=C/C=C(C)/C=C/C2=C(C)C[C@@H](OC(C)=O)CC2(C)C)C(C)(C)C1 [Zd, (3R,3′R)-zeaxanthin diacetate] |  |  | greater capability |  |  |

From patent US20220023249A1, “Carotenoid Formulation For Increased Bioavailability” (Industrial Organica, SA de CV, priority 2020, published 2022)
